The test system of the experiment is CEM cells HIV-1 protection, formazan growth assay. Description: NCI AIDS Antiviral Assay. The conditions noted are these: for IC50: measured here: growth of uninfected CEM cells. The method, boiled down:
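Human CEM cells, uninfected and HIV-1-infected, received five drug concentrations, and growth was read by soluble formazan assay. Compounds giving at least 50% protection were retested; reproducible 100% protection defined confirmed active.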

Where “and” joins values, the source holds several entries; their conditions need not be identical. Identical values can stand only once. Calls of active or inactive are those of the source.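 How the source made its calls: active means compounds giving half or more protection of infected cells from virus-caused growth loss, again on retest; inactive means the rest.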 A value given as a limit tells only on which side of the number the result lay.

The EC50 is the concentration that produces a half-maximal response. A word on the IC50: it is the concentration that gives 50% inhibition. Low values mean greater potency in that assay, high ones weaker potency in that assay. On to `Cc1ccc(S(=O)(=O)Nc2nnc(S(N)(=O)=O)s2)cc1`, for which the EC50 is > 200 µM and the IC50 was > 200 µM.
For the compound `C/C(=N\N=C(/[Se])N1CC2CCC(CC2)C1)c1ccccn1`, the EC50 was > 53.7 µM and the IC50 worked out at 0.17 µM.
The matching figures for `COc1ccc(Nc2ccc3c4c(cccc24)C(=O)N(c2ccc(OC)cc2)C3=O)cc1`: > 200 µM and 31.6 µM.
Taken in the same sequence, the figures for `COC(=O)c1cc(C#N)[nH]c1-c1cccs1` were > 200 µM and 40.7 µM.
For `O=C(Oc1ccc(N=Cc2ccc3c(c2)OCO3)cc1)Oc1ccc(N=Cc2ccc3c(c2)OCO3)cc1`, the result was inactive.
For the compound `CN1C(=O)CC(CC(=O)C2CCCCC2=O)CC1=O` (configuration not stated), the EC50 was > 200 µM and the IC50 is > 200 µM.
On to `CCN1C(=NCCO)NS(=O)(=O)c2ccccc21`, for which the EC50 was > 200 µM and the concentration for half-maximal inhibition (IC50) is > 200 µM.
Regarding `O=C(Nc1cccc(-c2nc3ccccc3[nH]2)c1)c1ccc(C(=O)Nc2cccc(-c3nc4ccccc4[nH]3)c2)cc1`, the EC50 was > 200 µM and the half-inhibitory concentration (IC50) is 91.2 µM.
Consider `NC1=Nc2ncccc2C(=O)NN1`, for which the EC50 was > 200 µM and the IC50 turned out to be 117 µM.
Turning to `c1ccc2c(c1)nc1n2CC2(CS1)CSc1nc3ccccc3n1C2`, the outcome was inactive.
Consider `COc1ccc(N2C(=O)C3c4[nH]c5ccccc5c4C4CCCCCCCCCC4C3C2=O)cc1` (configuration not stated), for which the EC50 is > 200 µM and the IC50 was > 200 µM.
With `O=c1cc2cccccc-2o1`, the EC50 is > 603 µM and the IC50 came to 295 µM.
Taken in the same sequence, the figures for `C=C1C(=O)O[C@H]2C1C(OC(=O)/C(C)=C/C)C(OC(C)=O)[C@@](C)(O)C1C2C(C)=C[C@H]1OC(C)=O` (some centres not stated) were > 141 µM and 6.17 µM.
`O=C(O)CC1SC2(C(=O)N(Cc3ccccc3)c3ccccc32)N(c2ccccc2)C1=O` (configuration not stated): the EC50 was > 200 µM and the IC50 was > 100 µM.
Consider `CCCCNC(=O)/C(=C/c1cccc(N(CC)CC)c1)NC(=O)c1ccccc1`, for which the EC50 is > 200 µM and the IC50 was 25.1 µM.
Taken in the same sequence, the figures for `COc1ccc(OC)c2c(C(C)=O)cccc12` were > 200 µM and 97.7 µM.
Consider `Cc1cn(C2CC(O)C(CO)C2C)c(=O)[nH]c1=O` (configuration not stated), for which the EC50 is > 200 µM and the concentration for half-maximal inhibition (IC50) is > 200 µM.
As for `C[C@@H]1C=C[C@@H]2COC(=O)C2=C[C@@H]1c1ccccc1`, the outcome was inactive.
Take `CC(C)[C@@H](C)[C@@]1(C)C[C@@H]1[C@@H](C)[C@H]1CC[C@@H]([C@@H]2CC=C3C[C@@H](O)CC[C@]3(C)C2=O)[C@]1(C)CCO`: the EC50 is > 200 µM and the IC50 came to 8.51 µM.
`C#CCNC(=O)NCCCC(NC(C)=O)C(=O)NCc1ccccc1` (configuration not stated): the outcome was inactive.
As to `Cc1c(Cl)cccc1Nc1ncccc1C(=O)O`, the EC50 is > 200 µM and the IC50 is > 100 µM.
Regarding `COc1ccc(N2C(=O)C3c4[nH]c5cccc(Cl)c5c4C4CCC(C(C)(C)C)CC4C3C2=O)cc1` (configuration not stated), the EC50 was > 200 µM.
As to `COc1ccc(C(=O)C/C(=N/NC(N)=S)C(=O)Nc2ccccc2)cc1`, the EC50 is > 25.1 µM and the half-maximal inhibitory concentration (IC50) was > 25.1 µM.
As to `CCc1cccc(C)c1NC(=O)C1=C(C)NC(C)=C(C(=O)Nc2c(C)cccc2CC)C1c1ccc2c(c1)OCO2`, the EC50 is > 24.5 µM and the concentration for half-maximal inhibition (IC50) was > 24.5 µM.
Turning to `Cl/C(N=Nc1ccccc1)=N/Nc1ccccc1`, the result was inactive.
Regarding `CN1C(=O)C(N=Nc2ccc([N+](=O)[O-])cc2)SC1=S` (configuration not stated), the EC50 is > 100 µM; the 50% inhibitory concentration (IC50) was 10.7 µM and > 12.6 µM.
On to `CN(C)/N=N/c1nc2c(c(=O)n(C)c(=O)n2C)n1C`, for which the EC50 was > 151 µM and the IC50 is > 151 µM.
Consider `COc1ccc(/C=C(/C(C)=O)c2ccccc2)cc1`, for which the EC50 is > 74.1 µM and the half-inhibitory concentration (IC50) was > 74.1 µM.
In the case of `Cc1nc2c(Br)cc(Br)cc2c(=O)n1-c1ccccc1NC1OC(CO)C(O)C(O)C1O` (configuration not stated), the EC50 is > 200 µM; the concentration for half-maximal inhibition (IC50) is > 200 µM and 105 µM.

For the origin of these results see PubChem BioAssay AID179 (DTP/NCI, 2004).
